The values below come from patent US20230348487A1, “2-AMINOPYRIMIDINE COMPOUND AND PHARMACEUTICAL COMPOSITION THEREOF AND APPLICATION THEREOF” (GUANGZHOU SALUSTIER BIOSCIENCES CO., LTD., priority 2021, published 2023).

Series [1] deals with JAK1 (Homo sapiens (Human), UniProt P23458). Kind of series: Z′-Lyte kinase inhibitory activity test. The conditions noted are these: ATP concentration Km. Format: biochemical. The essentials: (§1)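 FRET-based Z′-Lyte assay in 50 mM HEPES pH 7.5, 0.01% Brij-35, 10 mM MgCl2, 1 mM EGTA with 2 μM peptide substrate, titrated kinase and ATP; 10-point 3-fold dilutions from 10 μM final, 1.5 h kinase reaction at 30 °C, then 1 h development. Inhibition from substrate phosphorylation ratio.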
Chain of JAK1 (P23458 whole entry): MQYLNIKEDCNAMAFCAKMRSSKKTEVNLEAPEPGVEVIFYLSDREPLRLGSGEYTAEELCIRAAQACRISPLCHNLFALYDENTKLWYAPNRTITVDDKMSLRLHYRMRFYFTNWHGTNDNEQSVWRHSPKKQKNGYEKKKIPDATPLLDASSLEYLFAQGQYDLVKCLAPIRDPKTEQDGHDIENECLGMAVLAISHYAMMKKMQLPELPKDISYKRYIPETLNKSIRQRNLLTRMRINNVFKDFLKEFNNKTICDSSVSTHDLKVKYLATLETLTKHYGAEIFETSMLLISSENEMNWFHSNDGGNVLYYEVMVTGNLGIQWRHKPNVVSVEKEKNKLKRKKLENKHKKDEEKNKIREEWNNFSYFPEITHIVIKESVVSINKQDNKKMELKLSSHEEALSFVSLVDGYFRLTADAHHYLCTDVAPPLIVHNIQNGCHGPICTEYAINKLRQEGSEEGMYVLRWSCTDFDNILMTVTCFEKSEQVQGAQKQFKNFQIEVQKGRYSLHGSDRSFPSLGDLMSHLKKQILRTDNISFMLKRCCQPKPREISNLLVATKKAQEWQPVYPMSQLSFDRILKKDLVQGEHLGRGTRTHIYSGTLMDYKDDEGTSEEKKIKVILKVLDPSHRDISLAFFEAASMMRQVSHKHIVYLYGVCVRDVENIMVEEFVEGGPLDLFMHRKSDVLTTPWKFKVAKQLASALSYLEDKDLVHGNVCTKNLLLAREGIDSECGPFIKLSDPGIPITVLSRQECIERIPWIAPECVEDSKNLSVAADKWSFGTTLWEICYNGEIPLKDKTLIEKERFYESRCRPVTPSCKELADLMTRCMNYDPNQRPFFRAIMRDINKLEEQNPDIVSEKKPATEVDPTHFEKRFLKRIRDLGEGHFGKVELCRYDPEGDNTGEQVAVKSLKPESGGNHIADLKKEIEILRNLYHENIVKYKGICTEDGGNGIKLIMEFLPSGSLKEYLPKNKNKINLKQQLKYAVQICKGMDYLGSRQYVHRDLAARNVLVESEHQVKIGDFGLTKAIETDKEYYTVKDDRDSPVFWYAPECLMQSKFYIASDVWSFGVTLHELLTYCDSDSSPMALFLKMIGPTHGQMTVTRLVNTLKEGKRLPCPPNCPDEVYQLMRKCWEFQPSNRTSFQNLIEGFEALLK

In series [2] the target is JAK2 (Homo sapiens (Human), UniProt O60674). The series is described as follows: Z′-Lyte kinase inhibitory activity test. Format: biochemical. Particulars: ATP concentration Km. The essentials:
as §1

Series [3] has as its target JAK3 (Homo sapiens (Human), UniProt P52333). The series is described as follows: Z′-Lyte kinase inhibitory activity test. In kind it is biochemical. The procedure, abridged: as §1
The target in series [4] is TYK2 (Homo sapiens (Human), UniProt P29597). Kind of series: Z′-Lyte kinase inhibitory activity test. The conditions noted are these: ATP concentration Km. Format: biochemical. The essentials:
as §1

Series [5] in a line: Rat liver microsomes stability test. In kind it is in vitro ADME. Particulars: for Remaining percentage: rat liver microsomes, average value; for CLint scaled at 1 µM / half-life at 1 µM: rat, liver microsomes, pH 7.4, rat liver microsomes. On the procedure:
Firstly, preheated 0.1 M potassium phosphate buffer with 5 mM MgCl2 (i.e. K/Mg buffer) at pH 7.4±0.1. Prepared the spiked solution for the tested compound and reference compound (500 μM spiked solution: added 5 μL of 10 mM stock solution into 95 μL of acetonitrile; 1.5 μM microsomal spiked solution (0.75 mg/mL): added 1.5 μL of 500 μM spiked solution and 18.75 μL of 20 mg/mL liver microsomes into 479.75 μL of K/Mg buffer). Then NADPH was dissolved in buffer K to prepare a 6 mM, 5 mg/mL NADPH stock solution. At different time points (0-, 5-, 15-, 30-, 45 minutes), 30 μL of 1.5 μM spiked solution containing 0.75 mg/mL of microsome solution was distributed onto the designated detection plate. At 0 min, 150 μL of acetonitrile containing internal standard (IS) was added to the 0 min plate well, followed by 15 μL of NADPH stock solution (6 mM). Then, all plates were pre-incubated at 37° C. for 5 minutes, added 15 μL of NADPH stock solution (6 mM), the reaction was initiated and timed. At 5 minutes, 15 minutes, 30 minutes, and 45 minutes, added 150 μL of acetonitrile solution containing IS to the corresponding wells to stop the reaction. After quenching, the plate was shaken for 10 minutes (600 rpm/min), followed by centrifugation at 6000 rpm/min for 15 minutes. 80 μL of supernatant of each well were transferred into a 96-well sample plate containing 140 μL of ultrapure water to perform LC/MS analysis. The analysis of biological samples and all samples were completed by the analysis laboratory of Medicipia Pharmaceutical Technology (Shanghai) Co., Ltd.
(Microsomes from liver hold many membrane-bound enzymes, among them those of drug oxidation.)

The test system of series [6] is U937 cells. The series is described as follows: In vivo anti-tumor activity, U937 subcutaneous tumor in mice. Here is the method:
Animal model: 4-6 weeks old Male CB-17 SCID mice
U937 cells were cultured in vitro (1640+10% FBS+1% dual antibody) and amplified to 50 plates (10 cm). The cells were collected into a 50 mL centrifuge tube, centrifuged at 800 rpm for 5 minutes. The supernatant was discarded, and the cells was enriched into a 50 mL sterile centrifuge tube, washed once with PBS, and centrifuged at 800 rpm for 5 minutes. The cells were suspended with an appropriate amount of sterile PBS, counted and diluted to 2×10^7 cells/mL; 0.2 mL cells per animal were inoculated subcutaneously in the right anterior axilla of the animal (preferably inoculated before the animal is 20 g).
5-7 days after inoculation (Since U937 tumor grows fast, observe once every 3 days), when the tumor grew to 100-200 mm^3, the mice were grouped and administered the drugs, and excluded the animals with too large or too small tumors. The mice were randomly divided into a medication group and a solvent group, with 6 mice in each group. The initial tumor volume and body weight were recorded on the day of grouping.
The administration cycle was 10 days, and daily administration was applied. The body weight and tumor volume of animals were measured once every 2 days. The formula for calculating tumor volume is: V=π/6*a*b*b (wherein a and b are the length and width of the tumor, respectively). The next day after the end of administration, the animal was weighed and the tumor volume was measured; and then the animal was sacrificed and the tumor was dissected to weighed. The tumor body was fixed with neutral formalin for pathological observation. Animal blood samples were collected for routine blood analysis according to experimental needs, and the main organs of the animals were collected for pathological analysis. At the end of the study, all animals were euthanized and the tumors, livers, kidneys, and lungs of […] were collected for further analysis.

pIC50: −log10 of the molar value. Where two headings read alike, the source gives them in different places.

Chain of JAK3 (P52333 whole entry): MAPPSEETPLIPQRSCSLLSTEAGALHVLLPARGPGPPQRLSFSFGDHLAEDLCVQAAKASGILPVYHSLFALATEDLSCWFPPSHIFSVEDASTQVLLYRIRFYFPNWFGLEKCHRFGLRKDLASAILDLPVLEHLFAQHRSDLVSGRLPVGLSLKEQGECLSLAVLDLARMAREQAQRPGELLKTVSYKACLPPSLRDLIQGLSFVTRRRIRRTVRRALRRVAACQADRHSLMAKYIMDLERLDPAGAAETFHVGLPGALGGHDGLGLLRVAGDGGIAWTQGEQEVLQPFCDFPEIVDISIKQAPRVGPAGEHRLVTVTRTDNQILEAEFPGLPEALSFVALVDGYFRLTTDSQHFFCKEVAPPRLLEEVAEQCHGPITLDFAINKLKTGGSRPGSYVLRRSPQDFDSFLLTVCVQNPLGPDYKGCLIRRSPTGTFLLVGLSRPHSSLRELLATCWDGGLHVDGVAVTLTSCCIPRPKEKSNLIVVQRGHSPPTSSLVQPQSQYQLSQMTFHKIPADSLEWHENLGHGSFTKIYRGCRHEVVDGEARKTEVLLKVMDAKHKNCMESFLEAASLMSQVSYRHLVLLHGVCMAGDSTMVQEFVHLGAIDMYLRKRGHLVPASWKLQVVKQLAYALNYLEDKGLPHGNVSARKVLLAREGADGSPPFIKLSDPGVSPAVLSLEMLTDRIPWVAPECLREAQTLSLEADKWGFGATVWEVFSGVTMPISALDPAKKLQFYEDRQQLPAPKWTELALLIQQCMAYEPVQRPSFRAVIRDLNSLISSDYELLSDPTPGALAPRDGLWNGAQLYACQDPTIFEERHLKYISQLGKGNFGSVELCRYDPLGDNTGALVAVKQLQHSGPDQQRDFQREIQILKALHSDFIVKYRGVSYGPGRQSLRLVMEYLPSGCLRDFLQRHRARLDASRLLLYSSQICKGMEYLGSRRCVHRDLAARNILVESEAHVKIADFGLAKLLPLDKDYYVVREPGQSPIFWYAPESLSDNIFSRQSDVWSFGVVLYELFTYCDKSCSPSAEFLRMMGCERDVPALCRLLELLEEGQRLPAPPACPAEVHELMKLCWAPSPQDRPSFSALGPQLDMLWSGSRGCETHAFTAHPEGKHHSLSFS
Chain of TYK2 (P29597 whole entry): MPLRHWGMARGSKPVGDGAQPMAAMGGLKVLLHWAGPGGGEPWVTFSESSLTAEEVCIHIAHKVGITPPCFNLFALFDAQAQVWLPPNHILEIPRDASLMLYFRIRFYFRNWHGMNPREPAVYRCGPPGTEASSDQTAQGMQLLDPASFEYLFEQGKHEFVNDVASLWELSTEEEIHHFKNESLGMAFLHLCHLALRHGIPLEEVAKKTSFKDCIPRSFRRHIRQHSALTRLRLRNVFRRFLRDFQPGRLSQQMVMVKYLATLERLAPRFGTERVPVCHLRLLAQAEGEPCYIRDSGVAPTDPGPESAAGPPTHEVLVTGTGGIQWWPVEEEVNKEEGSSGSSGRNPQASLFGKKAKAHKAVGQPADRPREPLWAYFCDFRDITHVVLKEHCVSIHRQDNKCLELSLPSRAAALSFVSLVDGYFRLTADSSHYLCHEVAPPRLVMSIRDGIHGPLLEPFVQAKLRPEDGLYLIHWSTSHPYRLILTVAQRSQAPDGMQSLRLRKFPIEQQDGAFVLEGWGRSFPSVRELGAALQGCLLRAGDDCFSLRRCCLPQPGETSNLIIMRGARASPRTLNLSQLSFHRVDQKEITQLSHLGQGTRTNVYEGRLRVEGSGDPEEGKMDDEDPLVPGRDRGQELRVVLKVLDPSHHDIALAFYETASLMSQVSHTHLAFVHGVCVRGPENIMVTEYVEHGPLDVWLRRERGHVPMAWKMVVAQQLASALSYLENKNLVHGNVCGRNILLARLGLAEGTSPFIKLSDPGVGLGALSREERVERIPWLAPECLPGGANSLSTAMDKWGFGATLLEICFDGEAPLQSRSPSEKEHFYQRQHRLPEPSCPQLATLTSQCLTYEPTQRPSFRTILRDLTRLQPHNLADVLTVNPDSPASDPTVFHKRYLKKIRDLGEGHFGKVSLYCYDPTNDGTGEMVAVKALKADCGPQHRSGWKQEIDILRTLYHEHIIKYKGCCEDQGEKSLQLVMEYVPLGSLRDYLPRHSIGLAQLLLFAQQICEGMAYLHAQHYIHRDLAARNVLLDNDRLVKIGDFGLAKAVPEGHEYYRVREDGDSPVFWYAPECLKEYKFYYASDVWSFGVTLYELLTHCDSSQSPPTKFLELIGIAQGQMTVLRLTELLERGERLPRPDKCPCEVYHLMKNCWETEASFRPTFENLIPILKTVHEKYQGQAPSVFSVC
Chain of JAK2 (O60674 whole entry): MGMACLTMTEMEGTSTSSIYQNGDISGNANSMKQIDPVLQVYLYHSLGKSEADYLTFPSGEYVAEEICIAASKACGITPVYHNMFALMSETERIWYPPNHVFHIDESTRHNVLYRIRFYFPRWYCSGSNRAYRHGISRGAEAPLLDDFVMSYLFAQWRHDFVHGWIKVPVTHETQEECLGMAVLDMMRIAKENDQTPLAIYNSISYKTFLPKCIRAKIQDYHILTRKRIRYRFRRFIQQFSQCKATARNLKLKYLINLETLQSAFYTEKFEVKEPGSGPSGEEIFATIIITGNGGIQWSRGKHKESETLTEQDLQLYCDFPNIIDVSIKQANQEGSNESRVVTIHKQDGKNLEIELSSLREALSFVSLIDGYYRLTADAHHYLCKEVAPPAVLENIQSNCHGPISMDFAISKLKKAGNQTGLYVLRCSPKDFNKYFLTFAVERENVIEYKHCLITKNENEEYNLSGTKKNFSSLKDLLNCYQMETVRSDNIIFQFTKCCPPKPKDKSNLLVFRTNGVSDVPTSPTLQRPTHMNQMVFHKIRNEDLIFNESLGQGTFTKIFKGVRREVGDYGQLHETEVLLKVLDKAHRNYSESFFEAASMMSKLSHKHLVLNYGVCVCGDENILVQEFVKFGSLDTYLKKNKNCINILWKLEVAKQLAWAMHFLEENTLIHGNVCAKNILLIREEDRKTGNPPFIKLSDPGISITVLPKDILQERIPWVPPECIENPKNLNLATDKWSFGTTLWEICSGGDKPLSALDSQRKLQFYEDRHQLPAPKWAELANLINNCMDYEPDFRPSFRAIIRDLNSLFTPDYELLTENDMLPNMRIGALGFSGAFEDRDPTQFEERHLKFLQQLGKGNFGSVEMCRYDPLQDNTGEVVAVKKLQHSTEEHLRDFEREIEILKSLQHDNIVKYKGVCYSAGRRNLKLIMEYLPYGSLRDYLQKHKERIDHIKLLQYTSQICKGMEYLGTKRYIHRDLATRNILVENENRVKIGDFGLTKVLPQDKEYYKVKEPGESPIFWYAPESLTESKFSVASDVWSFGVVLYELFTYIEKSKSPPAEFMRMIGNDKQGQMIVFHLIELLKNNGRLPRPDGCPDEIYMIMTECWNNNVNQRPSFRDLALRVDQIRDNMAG

The term pIC50 denotes −log10 of the IC50, conventionally taken in molar units. A lower pIC50 goes with a high IC50. Consider `C=CC(=O)Nc1cc(Nc2ncc(Cl)c(O[C@@H]3CO[C@H]4[C@@H]3OC[C@H]4OC)n2)ccc1N(C)CCN(C)C` [LS 6-45], for which the pIC50 in series [1] was 4.89; in series [2], 5.69; in series [3] (ATP concentration 1 mM), 8.82; in series [3] (ATP concentration Km), 8.90; in series [4] it was 5.96. The Remaining percentage in series [5] (0 min) is reported as 100.00%; in series [5] (5 min), 95.76%; in series [5] (15 min), 90.38%; in series [5] (30 min), 87.93%; in series [5] (45 min), 79.61%. The CLint scaled at 1 µM in series [5] (calculated value below the 20.70 limit, read-out: Clint (value in parentheses)) is 16.6 mL/min/kg; in series [5] (read-out: Clint) it was below 20.7 mL/min/kg. In addition, the half-life at 1 µM was 2.5 h in series [5] (calculated value beyond the 120 min limit, read-out: T1/2 (value in parentheses)) and above 2 h in series [5] (read-out: T1/2). In series [6] (CB-17 SCID mice, during the administration period), the “toxic side effects and body weight” value was “no toxic side effects and no signs of weight loss”. Also, in series [6] (U937 tumor in CB-17 SCID mice, 50 mg/kg dose group, oral bid), the tumor growth result is reported as “completely stagnant or even regressed”. For the same compound, the “growth rate of tumors” value in series [6] (U937 tumor in CB-17 SCID mice, during 10 days administration, versus control group) is given as “significantly lower than that of the control group”. For the same compound, the “phosphorylation of JAK3, STAT3, STAT5 and cell cycle related proteins in tumor tissues (Western blot)” value in series [6] (tumor tissues of experimental mice, compared with control group) was “significant inhibitory effects”.
